Reference: ChEMBL document CHEMBL2346568, “Discovery and structure-activity relationship of thienopyridine derivatives as bone anabolic agents” (Bioorg Med Chem, 2013)
Activity calls are given as the source filed them. The calls are words filed in the database; no cut-off is given here.

Assays:
[1] = Induction of osteoblastic differentiation in mouse ST2 cells assessed as increase in alkaline phosphatase activity after 4 days by lowry method; format: functional
[2] = Induction of osteoblastic differentiation in mouse ST2 cells assessed as increase in alkaline phosphatase activity at 0.30 ug/ml after 4 days by lowry method; format: functional
in vitro = settings: rat, liver microsomes
[3] = Oral bioavailability in F344 rat at 25 mg/kg; format: ADME, organism-based; settings: in vivo
Rattus norvegicus [4] = assay: Bone anabolic effect in ovariectomized F344 rat postmenopausal osteoporosis model assessed as increase in areal bone mineral density of distal femur at 10 to 30 mg/kg, po qd for 6 weeks by dual energy X-ray absorptiometry; format: functional, organism-based
[5] = AUC in F344 rat at 25 mg/kg, po; format: ADME, organism-based; design: dose 25 mg/kg, route oral; settings: plasma
[6] = Clearance in F344 rat at 25 mg/kg, po; settings: in vivo
[7] = Cmax in F344 rat at 25 mg/kg, po; format: ADME, organism-based; design: dose 25 mg/kg, route oral; settings: in vivo
Rattus norvegicus [8] = assay: Bone anabolic effect in ovariectomized F344 rat postmenopausal osteoporosis model assessed as increase in serum osteocalcin level at 10 to 30 mg/kg, po qd for 6 weeks by ELISA; format: functional, organism-based
Rattus norvegicus [9] = assay: Bone anabolic effect in ovariectomized F344 rat postmenopausal osteoporosis model assessed as increase in areal bone mineral density of femoral diaphyses at 10 to 30 mg/kg, po qd for 6 weeks by dual energy X-ray absorptiometry; format: functional, organism-based
[10] = Volume of distribution in F344 rat at 2 mg/kg, iv; format: ADME, organism-based; design: dose 2 mg/kg, route intravenous; settings: in vivo
[11] = Clearance in F344 rat at 2 mg/kg, iv; settings: in vivo
Rattus norvegicus [12] = assay: Volume of distribution in F344 rat at 25 mg/kg, po; format: ADME, organism-based; design: dose 25 mg/kg, route oral; settings: in vivo
[13] = Half life in F344 rat at 25 mg/kg, po; settings: in vivo
[14] = AUC in F344 rat at 2 mg/kg, iv; format: ADME, organism-based; design: dose 2 mg/kg, route intravenous; settings: plasma
[15] = Half life in F344 rat at 2 mg/kg, iv; settings: in vivo
Rattus norvegicus [16] = assay: Bone anabolic effect in ovariectomized F344 rat postmenopausal osteoporosis model assessed as increase in areal bone mineral density of proximal tibiae at 10 to 30 mg/kg, po qd for 6 weeks by dual energy X-ray absorptiometry; format: functional, organism-based
Rattus norvegicus [17] = assay: Bone anabolic effect in ovariectomized F344 rat postmenopausal osteoporosis model assessed as increase in areal bone mineral density of distal femur at 60 mg/kg, po bid for 6 weeks by dual energy X-ray absorptiometry; format: functional, organism-based; design: dose 60 mg/kg
Rattus norvegicus [18] = assay: Bone anabolic effect in ovariectomized F344 rat postmenopausal osteoporosis model assessed as increase in areal bone mineral density of femoral diaphyses at 60 mg/kg, po bid for 6 weeks by dual energy X-ray absorptiometry; format: functional, organism-based; design: dose 60 mg/kg
Rattus norvegicus [19] = assay: Bone anabolic effect in ovariectomized F344 rat postmenopausal osteoporosis model assessed as increase in serum osteocalcin level at 60 mg/kg, po bid for 6 weeks by ELISA; format: functional, organism-based; design: dose 60 mg/kg
Rattus norvegicus [20] = assay: Bone anabolic effect in ovariectomized F344 rat postmenopausal osteoporosis model assessed as increase in areal bone mineral density of proximal tibiae at 60 mg/kg, po bid for 6 weeks by dual energy X-ray absorptiometry; format: functional, organism-based; design: dose 60 mg/kg

## N#Cc1ccc(N2CCCN(c3ccnc4sc(C(N)=O)c(N)c34)CC2)cc1
[1]
  EC200: 0.099 µg/mL

## Cc1ccccc1N1CCCN(c2ccnc3sc(C(N)=O)c(N)c23)CC1
[1]
  EC200: >1 µg/mL

## NC(=O)c1sc2nccc(N3CCCN(c4ccc(C(=O)O)cc4)CC3)c2c1N
[1]
  EC200: >1 µg/mL

## NC(=O)c1sc2nccc(N3CCCN(c4ccccn4)CC3)c2c1N
[1]
  EC200: 0.059 µg/mL

## NC(=O)c1sc2nccc(NC3CCCCC3)c2c1N
[1]
  EC200: 0.24 µg/mL

## NC(=O)c1sc2nccc(N3CCCN(c4ccncc4)CC3)c2c1N
[1]
  EC200: 0.091 µg/mL

## NC(=O)c1sc2nccc(N3CCNCC3)c2c1N
[2]
  Activity: 105%

## NC(=O)c1sc2nccc(N3CCCC3)c2c1N
[1]
  EC200: 0.29 µg/mL

## CCCNc1ccnc2sc(C(N)=O)c(N)c12
[2]
  Activity: 134%

## NC(=O)c1sc2nccc(N3CCOCC3)c2c1N
In vitro
  remaining at 0.5 h: 82%
[1]
  EC200: 0.44 µg/mL

## CC(C)Oc1ccc(N2CCCN(c3ccnc4sc(C(N)=O)c(N)c34)CC2)cc1
[1]
  EC200: >1 µg/mL

## CN(C)C(=O)Cc1ccc(N2CCCN(c3ccnc4sc(C(N)=O)c(N)c34)CC2)cc1
[1]
  EC200: 0.003 µg/mL

## NC(=O)c1sc2nccc(N3CCN(c4ccccc4)CC3)c2c1N
In vitro
  remaining at 0.5 h: 91%
[1]
  EC200: 0.1 µg/mL

## NC(=O)c1sc2nccc(N3CCCCC3)c2c1N
In vitro
  remaining at 0.5 h: 2%
[1]
  EC200: 0.067 µg/mL

## NC(=O)c1sc2nccc(N3CCCN(c4ccccc4)CC3)c2c1N
[3]
  bioavailability: 71%
Rattus norvegicus [4]
  Activity: Active
[5]
  AUC: 9.5 µg·h/mL
[6]
  CL/F: 2.04 L/h/kg
In vitro
  remaining at 0.5 h: 71%
[7]
  Cmax: 2.54 µg/mL
[1]
  EC200: 0.051 µg/mL
Rattus norvegicus [8]
  Activity: Active
Rattus norvegicus [9]
  Activity: Active
[10]
  Vd: 4.2 L/kg
[11]
  clearance: 1.74 L/h/kg
Rattus norvegicus [12]
  Vd: 8.1 L/kg
[13]
  half-life: 3.22 h
[14]
  AUC: 1.1 µg·h/mL
[15]
  half-life: 2.77 h
Rattus norvegicus [16]
  Activity: Active

## CN(C)c1ccnc2sc(C(N)=O)c(N)c12
[3]
  bioavailability: 87%
Rattus norvegicus [17]
  Activity: Active
Rattus norvegicus [18]
  Activity: Active
[5]
  AUC: 9.4 µg·h/mL
[7]
  Cmax: 5.59 µg/mL
[1]
  EC200: 0.17 µg/mL
[10]
  Vd: 1.1 L/kg
Rattus norvegicus [19]
  Activity: Active
Rattus norvegicus [12]
  Vd: 3.1 L/kg
Rattus norvegicus [20]
  Activity: Active
[14]
  AUC: 0.87 µg·h/mL

## NC(=O)c1ccc(N2CCCN(c3ccnc4sc(C(N)=O)c(N)c34)CC2)cc1
[1]
  EC200: 0.079 µg/mL

## CN(C)C(=O)c1ccc(N2CCCN(c3ccnc4sc(C(N)=O)c(N)c34)CC2)cc1
[1]
  EC200: 0.014 µg/mL

## CCCN(CCC)c1ccnc2sc(C(N)=O)c(N)c12
[2]
  Activity: 110%

## CNC(=O)c1ccc(N2CCCN(c3ccnc4sc(C(N)=O)c(N)c34)CC2)cc1
[1]
  EC200: 0.023 µg/mL

## CCOC(=O)c1ccc(N2CCCN(c3ccnc4sc(C(N)=O)c(N)c34)CC2)cc1
[1]
  EC200: 0.193 µg/mL

## Cc1ccc(N2CCCN(c3ccnc4sc(C(N)=O)c(N)c34)CC2)cc1
[1]
  EC200: 0.044 µg/mL

## CC(C)(C)c1ccc(N2CCCN(c3ccnc4sc(C(N)=O)c(N)c34)CC2)cc1
[1]
  EC200: 0.27 µg/mL

## NC(=O)c1sc2nccc(N3CCCN(c4nccs4)CC3)c2c1N
[1]
  EC200: 0.036 µg/mL

## NC(=O)c1sc2nccc(N3CCCN(c4ccc(F)cc4)CC3)c2c1N
[1]
  EC200: 0.082 µg/mL

## Cc1cccc(N2CCCN(c3ccnc4sc(C(N)=O)c(N)c34)CC2)c1
[1]
  EC200: 0.074 µg/mL

## CN1CCN(c2ccnc3sc(C(N)=O)c(N)c23)CC1
[2]
  Activity: 117%

## COc1ccc(N2CCCN(c3ccnc4sc(C(N)=O)c(N)c34)CC2)cc1
[1]
  EC200: 0.035 µg/mL
